Laboratory results published in US12077503B2, “Substituted cyclic amides and their use as herbicides” (FMC CORPORATION, priority 2015, dated 2024).

What was measured:
Assay type in all cases: in vivo
[1] = tested on: lambsquarters (Chenopodium album); experiment: Test E preemergence; conditions: scale 0 to 100
How it was run: (§1)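 Compound in non-phytotoxic solvent with surfactant is applied preemergence to silt loam soil after sowing, or postemergence to plants 2 to 18 cm tall in peat-based medium. Plants grow in a greenhouse for 14 to 21 d. Each species is then compared with controls and scored visually, 0 (no effect) to 100 (complete control).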

[2] = tested on: waterhemp (common waterhemp, Amaranthus rudis); experiment: Test E preemergence; conditions: scale 0 to 100
How it was run: as §1

[3] = tested on: crabgrass, large (large crabgrass, Digitaria sangumnalis); experiment: Test E preemergence; conditions: scale 0 to 100
How it was run: as §1

[4] = tested on: johnsongrass (Sorghum halepense); experiment: Test E preemergence; conditions: scale 0 to 100
How it was run: as §1

[5] = tested on: sandbur (southern sandbur, Cenchrus echinatus); experiment: Test E preemergence; conditions: scale 0 to 100
How it was run: as §1

[6] = tested on: speedwell (bird's-eye speedwell, Veronica persica); experiment: Test D preemergence; conditions: scale 0 to 100
How it was run: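 Planted in silt loam, then treated preemergence with test compound formulated in a surfactant-containing non-phytotoxic solvent. Held ~21 d under controlled growth conditions. Scored visually against controls on a 0–100 scale.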

[7] = tested on: velvetleaf (Abutilon theophrasti); experiment: Test G Pre-Emergence Protocol; conditions: Abutilon theophrasti, pre-emergence, 312 h, evaluated after 13 days; for pest or weed control at 15.625 g/ha: 15.625 g ai/ha; for pest or weed control at 15.625 g/ha / pest or weed control at 250 g/ha: read-out: Velvetleaf damage rating (100=total damage to plant; 0=no damage to plant); for pest or weed control at 62.5 g/ha: 62.5 g ai/ha, 100=total damage to plant, 0=no damage to plant, read-out: plant damage rating, Velvetleaf; for pest or weed control at 250 g/ha: 250 g ai/ha
Method: (§2) Seeds of corn (Zea mays), giant foxtail (Setaria faberi), barnyardgrass (Echinochloa crus-galli), ivy-leaved morning glory (Ipomoea hederacea), redroot pigweed (Amaranthus retroflexus) and velvetleaf (Abutilon theophrasti) were sown in standard soil in pots. After cultivation for one day under controlled conditions in a glasshouse (at 24/16° C., day/night; 14 hours light; 65% humidity), the plants were sprayed with an aqueous spray solution derived from the formulation of the technical active ingredient in acetone/water (50:50) solution containing 0.5% Tween 20 (polyoxyethylene sorbitan monolaurate, CAS RN 9005-64-5) to give a final dose of 15.625, 62.5 or 250 g/ha of test compound.
(§3) The test plants were then grown on under controlled conditions in a glasshouse (at 24/16° C., day/night; 14 hours light; 65% humidity) and watered twice daily. After 13 days the test was evaluated (100=total damage to plant; 0=no damage to plant). A dash (-) means no test result.

[8] = tested on: barnyardgrass (Echinochloa crus-galli); experiment: Test G Pre-Emergence Protocol; conditions: Echinochloa crus-galli, pre-emergence, 312 h, evaluated after 13 days; for pest or weed control at 15.625 g/ha: 15.625 g ai/ha, read-out: Barnyard grass damage rating (100=total damage to plant; 0=no damage to plant); for pest or weed control at 62.5 g/ha: 62.5 g ai/ha, 100=total damage to plant, 0=no damage to plant, read-out: plant damage rating, Barnyardgrass; for pest or weed control at 250 g/ha: 250 g ai/ha, read-out: Barnyardgrass damage rating (100=total damage to plant; 0=no damage to plant)
Method: as §2, §3

[9] = tested on: ivy-leaved morning glory (Ipomoea hederacea); experiment: Test G Pre-Emergence Protocol; conditions: Ipomoea, pre-emergence, 312 h, evaluated after 13 days; for pest or weed control at 15.625 g/ha: 15.625 g ai/ha, read-out: Morning-glory, Ivy-leaved damage rating (100=total damage to plant; 0=no damage to plant); for pest or weed control at 62.5 g/ha: 62.5 g ai/ha, 100=total damage to plant, 0=no damage to plant, read-out: plant damage rating, Morningglory, Ivy-leaved; for pest or weed control at 250 g/ha: 250 g ai/ha, read-out: Morningglory, Ivy-leaved damage rating (100=total damage to plant; 0=no damage to plant)
Method: as §2, §3

[10] = tested on: redroot pigweed (Amaranthus retroflexus); experiment: Test G Pre-Emergence Protocol; conditions: Amaranthus retroflexus, pre-emergence, 312 h, evaluated after 13 days; for pest or weed control at 15.625 g/ha: 15.625 g ai/ha; for pest or weed control at 15.625 g/ha / pest or weed control at 250 g/ha: read-out: Pigweed, Redroot damage rating (100=total damage to plant; 0=no damage to plant); for pest or weed control at 62.5 g/ha: 62.5 g ai/ha, 100=total damage to plant, 0=no damage to plant, read-out: plant damage rating, Pigweed, Redroot; for pest or weed control at 250 g/ha: 250 g ai/ha
Method: as §2, §3

CN1CC(c2ccc(C(F)(F)F)cc2)C(C(=O)Nc2ccccc2S(C)(=O)=O)C1=O (stereo not drawn) [Compound 624]
Plant response rating: Lambsquarters ([1]; 31 g ai/ha): 0
Plant response rating: Lambsquarters ([1]; 62 g ai/ha): 0
Plant response rating: Lambsquarters ([1]; 125 g ai/ha): 50
Plant response rating: Lambsquarters ([1]; 250 g ai/ha): 85
Plant response rating: Waterhemp ([2]; 31 g ai/ha): 50
Plant response rating: Waterhemp ([2]; 62 g ai/ha): 60
Plant response rating: Waterhemp ([2]; 125 g ai/ha): 75
Plant response rating: Waterhemp ([2]; 250 g ai/ha): 70
Plant response rating: Crabgrass, Large ([3]; 31 g ai/ha): 30
Plant response rating: Crabgrass, Large ([3]; 62 g ai/ha): 85
Plant response rating: Crabgrass, Large ([3]; 125 g ai/ha): 80
Plant response rating: Crabgrass, Large ([3]; 250 g ai/ha): 90
Plant response rating: Johnsongrass ([4]; 31 g ai/ha): 0
Plant response rating: Johnsongrass ([4]; 62 g ai/ha): 0
Plant response rating: Johnsongrass ([4]; 125 g ai/ha): 35
Plant response rating: Sandbur ([5]; 31 g ai/ha): 10
Plant response rating: Sandbur ([5]; 62 g ai/ha): 30
Plant response rating: Sandbur ([5]; 125 g ai/ha): 50
Plant response rating: Sandbur ([5]; 250 g ai/ha): 50
Plant response rating: Speedwell ([6]; 31 g ai/ha): 90
Plant response rating: Speedwell ([6]; 62 g ai/ha): 90
Plant response rating: Speedwell ([6]; 125 g ai/ha): 100
Plant response rating: Speedwell ([6]; 250 g ai/ha): 100

CN1CC(c2cccc(C(F)(F)F)c2)C(C(=O)Nc2cccc(F)c2F)C1=O (stereo not drawn) [Compound 636]
Plant response rating: Lambsquarters ([1]; 31 g ai/ha): 90
Plant response rating: Lambsquarters ([1]; 62 g ai/ha): 90
Plant response rating: Lambsquarters ([1]; 125 g ai/ha): 90
Plant response rating: Lambsquarters ([1]; 250 g ai/ha): 90
Plant response rating: Waterhemp ([2]; 31 g ai/ha): 25
Plant response rating: Waterhemp ([2]; 62 g ai/ha): 80
Plant response rating: Waterhemp ([2]; 125 g ai/ha): 70
Plant response rating: Waterhemp ([2]; 250 g ai/ha): 80
Plant response rating: Crabgrass, Large ([3]; 31 g ai/ha): 98
Plant response rating: Crabgrass, Large ([3]; 62 g ai/ha): 98
Plant response rating: Crabgrass, Large ([3]; 125 g ai/ha): 98
Plant response rating: Crabgrass, Large ([3]; 250 g ai/ha): 98
Plant response rating: Johnsongrass ([4]; 31 g ai/ha): 90
Plant response rating: Johnsongrass ([4]; 62 g ai/ha): 95
Plant response rating: Johnsongrass ([4]; 125 g ai/ha): 95
Plant response rating: Johnsongrass ([4]; 250 g ai/ha): 98
Plant response rating: Sandbur ([5]; 31 g ai/ha): 90
Plant response rating: Sandbur ([5]; 62 g ai/ha): 90
Plant response rating: Sandbur ([5]; 125 g ai/ha): 90
Plant response rating: Sandbur ([5]; 250 g ai/ha): 95

CN1CC(c2cccc(C(F)(F)F)c2)C(C(=O)Nc2ccccc2S(C)(=O)=O)C1=O (stereo not drawn) [Compound 637]
Plant response rating: Lambsquarters ([1]; 62 g ai/ha): 0
Plant response rating: Lambsquarters ([1]; 125 g ai/ha): 90
Plant response rating: Lambsquarters ([1]; 250 g ai/ha): 80
Plant response rating: Waterhemp ([2]; 31 g ai/ha): 50
Plant response rating: Waterhemp ([2]; 62 g ai/ha): 40
Plant response rating: Waterhemp ([2]; 125 g ai/ha): 65
Plant response rating: Waterhemp ([2]; 250 g ai/ha): 85
Plant response rating: Crabgrass, Large ([3]; 31 g ai/ha): 90
Plant response rating: Crabgrass, Large ([3]; 62 g ai/ha): 95
Plant response rating: Crabgrass, Large ([3]; 125 g ai/ha): 98
Plant response rating: Crabgrass, Large ([3]; 250 g ai/ha): 98
Plant response rating: Johnsongrass ([4]; 31 g ai/ha): 0
Plant response rating: Johnsongrass ([4]; 62 g ai/ha): 0
Plant response rating: Johnsongrass ([4]; 125 g ai/ha): 25
Plant response rating: Johnsongrass ([4]; 250 g ai/ha): 60
Plant response rating: Sandbur ([5]; 31 g ai/ha): 0
Plant response rating: Sandbur ([5]; 62 g ai/ha): 35
Plant response rating: Sandbur ([5]; 125 g ai/ha): 90
Plant response rating: Sandbur ([5]; 250 g ai/ha): 90
Plant response rating: Speedwell ([6]; 31 g ai/ha): 15
Plant response rating: Speedwell ([6]; 62 g ai/ha): 60
Plant response rating: Speedwell ([6]; 125 g ai/ha): 100
Plant response rating: Speedwell ([6]; 250 g ai/ha): 100

Cc1ccc([C@H]2CN(C)C(=O)[C@@H]2C(=O)Nc2cccnc2F)cc1 [Compound 1398]
pest or weed control at 15.625 g/ha [7]: 0%
pest or weed control at 62.5 g/ha [7]: 60%
pest or weed control at 250 g/ha [7]: 80%
pest or weed control at 15.625 g/ha [8]: 80%
pest or weed control at 62.5 g/ha [8]: 90%
pest or weed control at 250 g/ha [8]: 90%
pest or weed control at 15.625 g/ha [9]: 0%
pest or weed control at 62.5 g/ha [9]: 60%
pest or weed control at 250 g/ha [9]: 80%
pest or weed control at 15.625 g/ha [10]: 20%
pest or weed control at 62.5 g/ha [10]: 60%
pest or weed control at 250 g/ha [10]: 80%

Cc1ccc([C@H]2CN(C)C(=O)[C@@H]2C(=O)Nc2ccc(F)nc2F)cc1 [Compound 1402]
pest or weed control at 15.625 g/ha [7]: 0%
pest or weed control at 62.5 g/ha [7]: 70%
pest or weed control at 250 g/ha [7]: 80%
pest or weed control at 15.625 g/ha [8]: 80%
pest or weed control at 62.5 g/ha [8]: 90%
pest or weed control at 250 g/ha [8]: 90%
pest or weed control at 15.625 g/ha [9]: 40%
pest or weed control at 62.5 g/ha [9]: 70%
pest or weed control at 250 g/ha [9]: 80%
pest or weed control at 15.625 g/ha [10]: 0%
pest or weed control at 62.5 g/ha [10]: 80%
pest or weed control at 250 g/ha [10]: 80%
